Data: article PMC10180054, “Design, Synthesis and Biological Evaluation of Novel Pleuromutilin Derivatives Containing 6-Chloro-1-R-1H-pyrazolo[3,4-d]pyrimidine-4-amino Side Chain” (Molecules, 2023)
In brackets after ≈: the same amount, converted by molar mass.

Assays:
S. aureus 144 = test: MIC/MBC by broth dilution (CLSI); type: cell-based; conditions: Staphylococcus aureus; S. aureus 144 (clinical strain)
Method: (§1) The in vitro antimicrobial activity of the pleuromutilin derivatives was assessed against MRSA ATCC 43300, S. aureus ATCC 29213, S. aureus 144 and S. aureus AD3 according to the Clinical and Laboratory Standards Institute (CLSI). Tiamulin was used as a positive control drug. The results were summarized as the minimum inhibitory concentration (MIC) and the minimum bactericidal concentration (MBC) in Table 1 and Table 2. In addition, MIC results for the pleuromutilin derivatives against four Gram-negative bacteria are supplied in Tables S2 and S3.
(§2) The MIC and MBC values of the synthesized novel pleuromutilin derivatives against MRSA ATCC 43300, S. aureus ATCC 29213, S. aureus 144 and S. aureus AD3 were measured. Tiamulin was used as a positive control drug. The MIC and MBC values were manipulated by broth dilution according to the Clinical and Laboratory Standards (CLSI). Each compound to be measured was dissolved in a solution of 95% deionized water, 2.5% dimethyl sulfoxide (DMSO) and 2.5% Tween-80 with a concentration of 1280 µg/mL. Subsequently, serial twofold dilutions were made in a concentration range from 64 µg/mL to 0.0625 µg/mL. The working bacterial suspension was inoculated into each well, which provided the final inoculum density of 5 × 10^5 CFU/mL. Three parallel experiments were performed for each compound.
(§3) Overall, 25 µL of the bacterial solution from the wells with no obvious bacterial growth was inoculated on MH agar plates. Then, the inoculated MH agar plates were further cultured at 37 °C for 24 h.

S. aureus ATCC 29213 = test: MIC/MBC by broth dilution (CLSI); type: cell-based; conditions: Staphylococcus aureus, ATCC29213; for MBC: S. aureus ATCC 29213; for MIC: S. aureus ATCC 29213, broth dilution, 24 h, 37 °C
Method: as §1, §2, §3

S. aureus AD3 = test: MIC/MBC by broth dilution (CLSI); type: cell-based; conditions: Staphylococcus aureus; S. aureus AD3 (clinical strain)
Method: as §1, §2, §3

MRSA ATCC 43300 [1] = test: Constant concentration time–kill curves; type: cell-based, Staphylococcus aureus; conditions: for type of bactericidal kinetics: time–kill curves, 1 to 32 × MIC
Method: Time–kill kinetic assays were performed, which were used to investigate the in vitro bactericidal kinetic effect of compounds 12c, 19c, 22c and tiamulin.
Time–kill curve assays were established with the MIC value to investigate the antibacterial effect of constant drug concentration on MRSA. […] MRSA ATCC 43300 was incubated in MH broth at 37 °C for 4.5 h and diluted to 1 × 10^6 CFU/mL in MH broth. The saline control group was subjected to the same schedule but 0.9% saline water was added instead of the test compound. All the samples were incubated in an oscillating thermostatic at 37 °C, and then 100 μL of the mixture was extracted to 900 μL of sterile saline (0.9%) at 0, 3, 6, 9, 12 and 24 h, respectively. Samples were serially diluted 10-fold in sterile saline (0.9%) and inoculated onto agar plates. The colonies were counted after incubation at 37 °C for 24 h. Three independent experiments were performed according to our previous work. Time–kill curves were constructed by plotting the log10 CFU per millilitre versus time, and the change in bacterial concentration was determined.

MRSA ATCC 43300 [2] = test: MIC/MBC by broth dilution (CLSI); type: cell-based, Staphylococcus aureus; conditions: for MBC / MIC: Staphylococcus aureus; for MBC: MRSA ATCC 43300, 99.9% of the bacteria killed; for MIC: MRSA ATCC 43300, broth dilution, 24 h, 37 °C, read-out: MIC; for MBC/MIC ratio: against MRSA
Method: as §1, §2, §3

MRSA ATCC 43300 [3] = test: Neutropenic murine thigh infection model; type: in vivo; conditions: neutropenic mice, 20 mg/kg, 24 h after dosing, n = 6/group
Method: Therefore, the in vivo efficacy of compounds 12c and 22c were assessed using the murine neutropenic thigh infection model. Mice groups treated with saline and tiamulin were chosen as the negative and positive controls.
Model experiments of neutropenic mouse thigh infection were manipulated as described in the literature. Female, six-week-old, specific-pathogen-free mice weighing approximately 23~26 g were used throughout the study. Mice were rendered neutropenic by injection of cyclophosphamide (Mead Johnson Pharmaceuticals, Evansville, IN) on day 4 (150 mg/kg) and day 1 (100 mg/kg) before the experiment. The neutrophil numbers in mice blood should be <0.1 × 10^9/L [34]. In total, 0.1 mL of MH broth of MRSA (10^7 CFU/mL) was inoculated into each thigh of the neutropenic mice. Mice were divided into 4 groups (6 mice per group), including control (sterile saline), compounds 12c, 22c and tiamulin groups. After 3 h post-infection, the corresponding drugs were injected into each mouse’s thigh. Mice were euthanized following intravenous injection for 24 h. Thigh tissue of each mouse was removed, collected, weighed and homogenized in 3 mL of ice sterile saline. Six ten-fold serial dilutions were performed and 25 μL of the bacterial solution from each tube was plated on MH agar plates. The resulting colonies were counted after 24 h incubation at 37 °C. The protocol for this study was reviewed and approved by the Institutional Animal Care and Use Committee of the South China Agricultural University.

MRSA ATCC 43300 [4] = test: Post-antibiotic effect (PAE); type: cell-based, Staphylococcus aureus
Method: PAE has been considered as pharmacodynamic assistance which provides a reference for the rational formulation of dosing regimen. PAE refers to the temporary suppression of bacterial growth following transient antibiotic treatment. PAE assays were conducted for compounds 12c and 22c.
PAE is calculated from growth curves on the difference in time required for the number (1 log10 CFU/mL) of drug-exposed and unexposed microbes. […] The PAE values of compounds 12c and 22c increased with increasing incubation time.
PAE of compounds 12c and 22c on MRSA ATCC 43300 was determined using MH broth according to our previous work. The final concentration of MRSA was 1 × 10^6 CFU/mL by dilution with MH broth. Compounds 12c, 22c and tiamulin were supplemented in the suspension at a final concentration of 2 × MIC and 4 × MIC, respectively. The negative control group contained untreated MRSA bacterial cells. The test tubes were incubated with a 37 °C constant temperature vibration incubator for 1 and 2 h. After incubation, the test compound was removed from the sample by diluting 1000-fold with the preheated MH broth. Next, 100 μL of suspension from each culture was 10-fold diluted in sterile saline and inoculated on MH agar plates at 0, 2, 4, 6 and 8 h after inoculation. The number of colonies was calculated after incubation at 37 °C for 24 h. The experiments were performed in triplicate.

Caco-2 cells = test: Cytotoxicity MTT assay; type: cell-based, human; conditions: 1~8 μg/mL, 16 h
Method: (§4) The presence of compounds can influence cellular basic physiological processes, suppress proliferation and even reduce cell survival, etc. In the community, MRSA generally causes respiratory infection. Therefore, cytotoxicity was evaluated to explore the effect of compounds 12c and 22c on the viability of the respiratory tract cells 16-HBE (human bronchial epithelial cell line). RAW 264.7 (mouse peritoneal macrophage cell line) and Caco-2 (human epithelial colorectal adenocarcinoma cell line) were also used to evaluate the cytotoxicity of compounds 12c and 22c by MTT assay.
(§5) Cytotoxicity of the test compounds was assessed using the conventional MTT method. RAW 264.7 murine macrophage cells, Caco-2 cells and 16-HBE were used in this experiment. The cells were seeded into 96-well plates at a density of 1.0 × 10^5 cells per well. After 4 h at 37 °C, the cells were treated with compounds 12c and 22c at various concentrations and incubated at 37 °C for 16 h. Next, MTT (0.5 mg/mL in PBS, 100 μL/well) was added sequentially to each well in a humidified atmosphere of 95% air and 5% CO2 incubator and the incubation continued for an additional four hours. After incubation, the medium was peeled off and DMSO (150 μL/well) was added to dissolve the cells, and then the incubation was continued for 30 min. At the end of this period, the absorbance was measured at 490 nm by a microplate spectrophotometer (BIO-TEK Instruments, Winooski, VT, USA).

16-HBE cells = test: Cytotoxicity MTT assay; type: cell-based, human; conditions: 1~8 μg/mL, 16 h
Method: as §4, §5

Row | Structure (SMILES) | MBC (S. aureus 144) [µg/mL] | MIC (S. aureus 144) [µg/mL] | MBC (S. aureus ATCC 29213) [µg/mL] | MIC (S. aureus ATCC 29213) [µg/mL] | MBC (S. aureus AD3) [µg/mL] | MIC (S. aureus AD3) [µg/mL] | melting point [°C] | MRSA killed in time–kill assay (MRSA ATCC 43300 [1]; 2 × MIC, 24 h incubation) [%] | reduction of MRSA in time–kill assay (MRSA ATCC 43300 [1]; 2 × MIC, 24 h incubation) [log10 CFU/mL] | reduction of MRSA in time–kill assay (MRSA ATCC 43300 [1]; 4 × MIC) [log10 CFU/mL] | type of bactericidal kinetics (MRSA ATCC 43300 [1]) | MBC (MRSA ATCC 43300 [2]) [µg/mL] | MIC (MRSA ATCC 43300 [2]) [µg/mL] | MBC/MIC ratio (MRSA ATCC 43300 [2]) | reduction of MRSA load in thigh vs growth control (MRSA ATCC 43300 [3]) [log10 CFU/mL] | PAE (MRSA ATCC 43300 [4]; 2 × MIC, exposure for 1 h) [h] | PAE (MRSA ATCC 43300 [4]; 2 × MIC, exposure for 2 h) [h] | PAE (MRSA ATCC 43300 [4]; 4 × MIC, exposure for 1 h) [h] | PAE (MRSA ATCC 43300 [4]; 4 × MIC, exposure for 2 h) [h] | also measured
1 | C=C[C@]1(C)C[C@@H](OC(=O)CSc2ccc(Nc3nc(Cl)nc4c3cnn4-c3ccc(F)cc3)cc2)[C@]2(C)[C@H](C)CC[C@]3(CCC(=O)[C@H]32)[C@@H](C)[C@@H]1O [Compound 19c, 22-[4-(6-Chloro-1-(4-fluorophenyl)-1H-pyrazolo[3,4-d]pyrimidine-4-yl)amino-Phenylsulfanyl]-22-deoxypleuromutilin] | 2 (≈ 2.73 µM) | 1 (≈ 1.37 µM) | 0.5 (≈ 0.683 µM) | 0.25 (≈ 0.341 µM) | 1 (≈ 1.37 µM) | 0.25 (≈ 0.341 µM) | 141 to 144 | 99.9 | −3.57 | −5.16 | time-dependent | 0.5 (≈ 0.683 µM) | 0.25 (≈ 0.341 µM) | ≤ 2 |  |  |  |  |  | 
2 | C=C[C@]1(C)C[C@@H](OC(=O)CSCCN(CC)CC)[C@]2(C)[C@H](C)CC[C@]3(CCC(=O)[C@H]32)[C@@H](C)[C@@H]1O [Tiamulin, tiamulin, reference compound] | 2 (≈ 4.05 µM) | 1 (≈ 2.03 µM) | 1 (≈ 2.03 µM) | 1 (≈ 2.03 µM) | 2 (≈ 4.05 µM) | 1 (≈ 2.03 µM) |  | 99.9 | −3.78 |  | time-dependent | 1 (≈ 2.03 µM) | 0.5 (≈ 1.01 µM) |  | −0.56 | 0.27 | 1.23 | 0.42 | 1.31 | 
3 | C=C[C@]1(C)C[C@@H](OC(=O)CSc2ccc(Nc3nc(Cl)nc4c3cnn4-c3cccc(C)c3)cc2)[C@]2(C)[C@H](C)CC[C@]3(CCC(=O)[C@H]32)[C@@H](C)[C@@H]1O [Compound 12c, 22-[4-(6-Chloro-1-(3-methylphenyl)-1H-pyrazolo[3,4-d]pyrimidine-4-yl)amino-Phenylsulfanyl]-22-deoxypleuromutilin] | 1 (≈ 1.37 µM) | 0.5 (≈ 0.686 µM) | 0.5 (≈ 0.686 µM) | 0.25 (≈ 0.343 µM) | 0.25 (≈ 0.343 µM) | 0.125 (≈ 0.172 µM) | 95 to 97 | 99.99 | −4.51 | −5.76 | time-dependent | 0.5 (≈ 0.686 µM) | 0.25 (≈ 0.343 µM) | ≤ 2 | −0.79 | 0.37 | 1.72 | 0.43 | 1.73 | effect on viability of Caco-2 cells (Caco-2 cells): did not affect the viability; effect on viability of 16-HBE cells (16-HBE cells): did not affect the viability
